Laboratory results taken from article PMC11362529, “Exploring the neuroprotective potential of Nrf2-pathway activators against annonacin toxicity” (Scientific Reports, 2024).

Columns and labels:
Format in all cases: cell-based, human
Details in all cases: 48 h
SRSF2/SC-35 = experiment: pSC-35 speckle immunofluorescence
Protocol: For immunostaining, cells were seeded in differentiation medium, on 24-well microplates containing PLO/FN-coated 13 mm Ø coverslips, and treated for 48 h as previously described. On the readout day, the medium was removed and cells were fixed, permeabilized and blocked as before. Primary antibody dilutions were made in 1.5% NHS in PBS (Supplementary Table S1) and incubated overnight at 4 °C. On the following day, the coverslips were washed three times with PBS and incubated with host-specific fluorescence secondary antibodies (Supplementary Table S1), for 2 h at RT, protected from light. After another three washes with PBS, cell nuclei were stained with 1:5,000 DAPI (4’,6-diamidino-2-phenylindole, Thermo Fisher Scientific) in PBS, for 15 min at RT. The coverslips were mounted in mowiol and left to dry for 24 h before imaging. Image acquisition for FI quantification was done with a 200 × magnification (20 × objective, 10 × intermediate magnification), or 400x (40 × objective, 10 × intermediate magnification) in the case of pSC-35 and AT8 immunostaining, on a fluorescence microscope Leica-DFC9000GTC (Leica). In the case of phospho-tau AT8, Z-stacks consisting of 18 plane images with a step size of 1 μm were acquired. The image acquisition parameters were identical for all conditions. Quantification of 8-OHdG (8-hydroxyguanosine) FI and tau species was performed using the ImageJ software. Ten-to-fifteen images per condition across triplicates, from different view fields, were used for this purpose. Briefly, TIFF exported images were submitted to background subtraction using the rolling ball method with a radius of 50 pixels. For 8-OHdG analysis, a channel-specific threshold was applied to all images to define the ROI and FI was measured and normalized to the cell number, determined by the DAPI channel. The average value of the different view fields per experimental condition was taken and reported as fold change compared to the control (DMSO-treated) condition. For the analysis of phospho-tau AT270 and pan-tau reactivity, channel specific thresholds were applied to all images. The DAPI channel was used to define nuclei from viable cells, by selecting particles with a size above 15 µm^2 and a circularity of 0.3–1.0. […] These masks were used to quantify the number of somas expressing each of these tau species, as well as the respective FI. The number of AT270-positive somas was divided by the number of pan-tau-positive somas and expressed as a percentage. […] For quantification of pSC-35 and AT8 speckle number and FI, we used CellProfiler™ 4 (https://cellprofiler.org/, Broad Institute Inc., Cambridge, MA, USA) speckle counting pipeline. […]

LUHMES cells = experiment: Neurite arborization analysis (Tuj-1 immunofluorescence)
Protocol: Cells were seeded in differentiation medium, onto 24-well microplates containing PLO/FN coated 13 mm Ø coverslips, and submitted to the described pharmacological treatments for 48 h. After this period, the medium was removed and cells were washed once with warm HBSS, and fixed with 4% PFA (paraformaldehyde) in PBS, for 20 min at RT (room temperature). After fixation, cells were washed twice with PBS and permeabilized with 0.1% Triton™ X-100 in PBS, for 20 min at RT. Next, cells were blocked in 1.5% NHS (normal horse serum) in PBS, for 1 h at RT, and incubated overnight with 1:1,000 Tuj-1 Alex 549-conjugated antibody (#801208, BioLegend, San Diego, CA, USA) in 1.5% NHS in PBS. After washing three times with PBS, cell nuclei were stained with 1:5,000 DAPI (4ʹ,6-diamidino-2-phenylindole, Thermo Fisher Scientific) in PBS, for 15 min at RT. The coverslips were mounted in mowiol, and left to dry for 24 h before imaging. Ten to fifteen images per condition, across triplicates, from different fields of view were taken on a fluorescence microscope Leica-DFC9000GTC (Leica) with 200 × magnification (20 × objective, 10 × intermediate magnification). Identical acquisition parameters were used for all images. Neurites density and arborization were quantified on TIFF exported images using the “neurite analyzer” plugin described before. The average value of the different view fields per experimental condition was taken and reported as fold change compared to the control (DMSO-treated) condition.

HO-1 = HO-1 mRNA by RT-qPCR
Protocol: (§1) LUHMES cells were seeded on PLO/FN coated 6-well microplates and the pharmacological treatments were performed as previously explained. The cells were washed in HBSS, prior to being collected for mRNA isolation (RNeasy® Plus Mini Kit, Qiagen, Venlo, Netherlands), following the manufacturer’s instructions. The mRNA concentrations were determined on a Nano-Drop 2000c (Thermo Fisher Scientific) and 1 µg of mRNA was reverse-transcribed into cDNA with the iScript™ Reverse Transcription Supermix for RT-qPCR Kit (Bio-Rad) on a thermal cycler (SensoQuest, Göttingen, Germany). Real-time PCR was performed using SYBR™ Select Master Mix for CFX (Thermo Fisher Scientific) with 30 ng cDNA and 0.4 µM of primers against the respective target genes (Supplementary Table S3), in a 20 µl total volume, on a CFX96 Touch™ Real-Time Cycler (Bio-Rad). The relative expression of mRNA was calculated using the CFX Manager software (ΔΔCt method) from Bio-Rad, and the Ct values of the target-genes were normalized to the reference genes RPL22 and UBQLN1. The data were reported as fold change relative to the control (DMSO-treated) condition.

4R-tau transcripts = experiment: 4R-tau mRNA and 4R-/3R-tau ratio by RT-qPCR
Protocol: as §1

[1] = 15 μM ezetimibe + 20 nM annonacin
[2] = protective concentration of compound + 20 nM annonacin
[3] = presence of 20 nM annonacin, vs DMSO control under annonacin

## CCCCCCCCCCCC[C@@H](O)[C@H]1CC[C@H]([C@H](O)CCCC[C@H](O)CCCCC[C@@H](O)CC2=CC(C)OC2=O)O1 (stereo partly shown) [annonacin]
SRSF2/SC-35; 20 nM annonacin alone
  number of pSC-35 speckles per nucleus: no changes in the number of pSC-35 speckles per nucleus
  pSC-35 fluorescence intensity: no changes
LUHMES cells; 20 nM annonacin alone
  number of quadruple points: 0.31 fold over control
  total branch length: 0.44 fold over control
HO-1; 20 nM annonacin alone (DMSO control condition) vs DMSO control without annonacin
  HO-1 mRNA expression: downregulation of both target-genes
4R-tau transcripts; 20 nM annonacin alone
  4R-/3R-tau isoforms ratio: 3.5 fold over control
  upregulation of 4R-tau transcripts over control cells: twofold

## O=C1[C@H](CC[C@H](O)c2ccc(F)cc2)[C@@H](c2ccc(O)cc2)N1c1ccc(F)cc1 [ezetimibe]
SRSF2/SC-35; [1]
  number of pSC-35 speckles per nucleus: non-significant reduction of the number of speckles per nucleus
SRSF2/SC-35; 15 μM ezetimibe + 20 nM annonacin, vs control
  pSC-35 fluorescence intensity per nucleus: twofold
LUHMES cells; [2]
  number of quadruple points: 0.71 fold over control
  total branch length: significantly denser neural arborizations compared with the annonacin condition
HO-1; absence of annonacin
  HO-1 mRNA expression: did not induce significant changes
HO-1; [3]
  HO-1 mRNA expression: did not induce significant changes
4R-tau transcripts; [1]
  4R-/3R-tau isoforms ratio: remained similar to healthy control cells
  4R-tau transcripts: prevented the annonacin-induced upregulation of 4R-tau transcripts

## C=CC(C)(C)c1cc(/C=C/C(=O)c2ccc(O)cc2)c(OC)cc1O [licochalcone A]
LUHMES cells; [2]
  number of quadruple points: 0.81 fold over control
  total branch length: significantly denser neural arborizations compared with the annonacin condition
HO-1; [3]
  HO-1 mRNA expression: significantly rescued from this downregulation

## Cn1c(Nc2nc3ccc(C(F)(F)F)cc3s2)nc2cc(C(=O)NCCOCCO)ccc21 [HPP-D]
LUHMES cells; [2]
  number of quadruple points: approximately 0.50 fold over control
  total branch length: significantly denser neural arborizations compared with the annonacin condition
HO-1; absence of annonacin
  HO-1 mRNA expression: 19 fold over DMSO control
HO-1; [3]
  HO-1 mRNA expression: significantly rescued from this downregulation
